# Data from patent publication US6447801B1, “Anti-parasitic action of N,N-diethyl-m-toluamide (deet) and formulations that prolong its activity in the skin” (priority 1997, dated 2002).
# Assays:
# [1] = tested on: cercariae of Schistosoma mansoni; test: In vitro effects of DEET on S. mansoni cercariae (viability by neutral red); assay type: cell-based
# Method: FIG. 1 illustrates the in vitro effects of DEET on S. mansoni cercariae. In vitro effects of DEET on cercariae of Schistosoma mansoni. Cercariae were placed in 96 well titre plates coated previously with a serial doubling dilutions of DEET ranging from 30% to 0.24%. At different time periods after exposure to DEET, the percent viability of cercariae was evaluated by neutral red exclusion method. The experiment was repeated 17 times with an “n” of 189 to 440 cercariae for each treatment.
# Based on the foregoing observations, DEET was tested for its effects on S. mansoni cercariae. DEET is commercially available and was purchased from Fluka Chemicals Corp. (Ronkonkoma, N.Y.). For in vitro studies, serial doubling dilutions of DEET ranging from 30% to 0.24% were prepared in isopropanol(Sigma, St. Louis, Mo.) and 50 μl of each dilution was transferred to individual wells of a 96 well flat bottom micro titre plate (Costar, Cambridge, Mass.). Control wells received 50 μl of isopropanol each. The plates were then kept covered in a fume hood and the fluid was allowed to evaporate overnight. The following day approximately 50 cercariae of S. mansoni suspended in 50 μl of RPMI-1640 media (pH 7.4; Gibco BRL) or phosphate buffered saline (PBS, pH 7.0) was placed in each well and the viability of the cercariae were monitored at 30 min, 60 min, and 4 hrs. A total of 17 replicas were performed for each dilution and for each time point in any one given experiment. To determine the viability of cercariae, 10 μl of a 0.05% Neutral Red (Sigma Chemical Co.) was added to each well at the end of the experiment and the percentage of live and dead cercariae was determined as described in He et al., Acta Zoologica Sinica, 31:240-245 (1985).
# cercariae of S. mansoni [2] = test: Effect of DEET on the morphology of cercariae (transmission electron microscopy); assay type: cell-based, Schistosoma mansoni
# Method: Effect of DEET on cercarial morphology was evaluated by transmission electron microscopic studies. In these experiments, approximately 300-500 cercariae of S. mansoni suspended in 100 μl of PBS were placed in each well of a 96 well plate coated with varying concentrations of DEET (ranging from 7.5%-40%) or isopropanol (control) as described above. Samples were collected at 5, 10, 20, 30 and 240 minutes after exposure to DEET and processed for transmission electron microscopy as described in Salafsky et al., Exper. Parasitol., 67:116-127 (1988). Briefly, cercariae collected from each tube were transferred to fresh tubes containing PBS plus 10% fetal bovine serum (Sigma Chemical Co.) and concentrated into a pellet by centrifugation at 500 rpm (300 g) for 5 minutes. The pellet was then fixed overnight at 4° C. in a fixative containing 3% gluteraldehyde, and 1% formaldehyde in a 0.1 M phosphate buffer (pH 7.2). After one hour post fixation in 1% osmium tetroxide the pellet were dehydrated through a graded acetone series and embedded in epon resin. Sections were examined in a Hitachi H-500 transmission electron microscope after staining with uranyl acetate and lead citrate.
# cercariae of S. mansoni [3] = test: Wash-off tests with DEET and Lipodeet in schistosomiasis (mice); assay type: in vivo, Schistosoma mansoni
# Method: After bathing, mice were allowed to dry completely. The abdominal skin of these mice was then exposed to 150 cercariae of S. mansoni labeled with ^35S-methionine. Degree of protection conferred by Lipodeet and DEET after the wash off treatment was evaluated by monitoring the entry of parasites into the skin by compressed organ autoradiography techniques as described earlier (Li et. al. Parasitology International 46:55-65, 1997).
# [4] = Absorption through skin: DEET level in plasma by HPLC; assay type: in vivo, mice; details: 200 μl of 60% on abdominal skin
# Method: Briefly, the Bond-Elute cartridges were activated by washing with two ml of HPLC grade acetonitrile (Sigma chemicals Co., St. Louis, Mo.) followed by two ml of deionized, degassed filtered water. A low vacuum (<0.5 in Hg) was applied for the wash using a Vac-Elute manifold (Varian Analytical Supplies Co.). […] Hg). The cartridge was then washed with three mls. of acetonitrile-ammoniumacetate (pH 4.5, 0.03 M, at 40:60 V:V) under low vacuum (<0.5 in. Hg). The eluant was then injected directly onto columns (ODS-1, 250×4.6 mm, Alltech Co., Deerfield, Ill.) for HPLC analysis (Waters, Division of Millipore, Milford, Mass.). Chromatographic conditions used for HPLC analysis is as follows: Mobil phase: acetonitrile-ammoniumacetate (pH 4.5, 0.03M, at 36:64 v:v), flow rate 1.0 ml/min, UV detection at 220 nm. Sensitivity was set at 0.01AUFS. […].
smiles,measurement,setting,value
"CCN(CC)C(=O)c1cccc(C)c1 [DEET, N,N-diethyl-m-toluamide]",time to immobilize all the cercariae,[1]; DEET 7.5%,≤ 5 min
same,cercariae dead,"[1]; DEET 7.5%, by 4 hours",100%
same,immobilization of cercariae,[1]; DEET at concentrations of 15% and above,immediately immobilized
same,cercariae dead (neutral red staining),"[1]; DEET at concentrations of 15% and above, 30 minutes",100%
same,immobilizing or killing of cercariae,[1]; concentrations below 7.5% of DEET,less effective in immobilizing or killing cercariae
same,ultrastructural changes of cercariae,"cercariae of S. mansoni [2]; 7.5% DEET, evident as early as five minutes post-exposure",ultrastructural changes of two types were observed
same,lysis of cercariae,cercariae of S. mansoni [2]; 240 min after exposure to DEET,Frank lysis of cercariae
same,protective effect after wash-off,"cercariae of S. mansoni [3]; 10%, five minutes of exposure to water, irrespective of water temperature",significantly (p<0.01) abolished the protective effects of DEET
same,protective effect after wash-off,cercariae of S. mansoni [3]; concentration increased to 20%,slightly improved the retention of protective ability of DEET
same,DEET present in the plasma,[4]; 15 min,11.6 mg
same,"DEET present in the plasma, percent",[4]; 15 min,9.7%
same,DEET present in the plasma,[4]; 30 min,5.3 mg
same,"DEET present in the plasma, percent",[4]; 30 min,4.4%
same,DEET present in the plasma,[4]; 60 min,~0.182 mg
same,"DEET present in the plasma, percent",[4]; 60 min,0.15%
